# Data reported in US8178087B2, “Process of production of bacteriophage compositions and methods in phage therapy field” (priority 2006, dated 2012).
# What was measured:
# AS19 bacterial strain [1] = assay: different antibiotic test disks, T4-type phages on AS19 bacterial strain; assay type: cell-based, E. coli; settings: T4-like phages
# AS19 bacterial strain [2] = assay: morphology of T4 infected AS19 bacteria with or without CTX by optical microscopy; assay type: cell-based, E. coli; settings: CTX 0.003 μg/ml, several hours after infection, FIG. 4
# Source text: The morphology of the bacteria in culture has been observed by optical microscopy at different times after infection.
# [3] = tested on: Escherichia. coli bacterial strain S/6; assay: T4 plaque size with CTX disk on bacterial strain S/6; parameters: key to the marks not given beside the values; settings: bacterial strain S/6, bacteriophage T4, CTX test disk
# [4] = tested on: Escherichia. coli bacterial strain AS19; assay: T4 plaque size with CTX disk on bacterial strain AS19; assay type: cell-based; parameters: key to the marks not given beside the values; settings: bacterial strain AS19, bacteriophage T4, CTX test disk
# [5] = tested on: Escherichia. coli bacterial strain BE; assay: T4 plaque size with CTX disk on bacterial strain BE; assay type: cell-based; parameters: key to the marks not given beside the values; settings: bacteriophage T4, CTX test disk
# [6] = tested on: Escherichia. coli bacterial strain P400; assay: T4 plaque size with CTX disk on bacterial strain P400; assay type: cell-based; settings: bacterial strain P400, bacteriophage T4, CTX test disk
# AS19 bacterial strain [7] = assay: growth of AS19 bacterial strain in LB liquid medium with low dose CTX (OD600, CFU/ml); assay type: cell-based, E. coli; settings: CTX 0.003 μg/ml
# Method: Growth was measured either by OD600 (A) or CFU/ml (B). The times (T) is indicated in minutes after addition of CTX to the growth medium.
# To examine the effect of low doses of the β-lactam antibiotic CTX on a culture of the AS19 bacterial strain, this bacterial strain was grown in LB liquid medium with CTX at a dosage level (0.003 μg/ml) that produces a substantial effect synergistic when infected with T4 phage.
# [8] = tested on: Escherichia. coli bacterial strain C600; assay: T4 plaque size with CTX disk on bacterial strain C600; settings: bacterial strain C600, bacteriophage T4, CTX test disk
# [9] = tested on: Escherichia. coli bacterial strain MC1061; assay: T4 plaque size with CTX disk on bacterial strain MC1061; settings: bacterial strain MC1061, bacteriophage T4, CTX test disk
# non-infected E. coli MFP = assay: antibiotic sensitivity test disks on non-infected MFP strain; assay type: cell-based, Escherichia coli; settings: FIG. 1
# φmF-infected E. coli MFP = assay: φmF plaque size around antibiotic disks on MFP strain; assay type: cell-based, Escherichia coli
# Source text: A culture of non-infected MFP strain has been grown overnight in LB liquid medium, and then a dilution of the culture either alone or mixed with φmF phage have been inoculated on a series of nutrient Petri plate where different antibiotic sensitivity test disks were placed on the surface.
# The entire surface of the Petri plate was inoculated with a mixture of both the MFP bacterial host and with the phage φmF that could infect it (see FIG. 1, φmF-infected E. coli MFP).
# [10] = tested on: uropathogenic Escherichia coli strain; assay: antibiotic sensitivity test disks on Petri plate inoculated with child's urine (phage plaques around disks); assay type: cell-based; settings: plate inoculated with dilution of child's urine; strain infected by bacteriophages
compound,measurement,setting,value
Colistin,stimulation of T4 phage production (synergistic effect on phage T4 growth),AS19 bacterial strain [1],failed to stimulate T4 phage production
COc1cc(Cc2cnc(N)nc2N)cc(OC)c1OC [Trimethoprim],stimulation of T4 phage production (synergistic effect on phage T4 growth),AS19 bacterial strain [1],failed to stimulate T4 phage production
O=C(N[C@H](CO)[C@H](O)c1ccc([N+](=O)[O-])cc1)C(Cl)Cl [Choramphenicol],stimulation of T4 phage production (synergistic effect on phage T4 growth),AS19 bacterial strain [1],failed to stimulate T4 phage production
CO[C@H]1/C=C/O[C@@]2(C)Oc3c(C)c(O)c4c(O)c(c(/C=N/N5CCN(C)CC5)c(O)c4c3C2=O)NC(=O)/C(C)=C\C=C\[C@H](C)[C@H](O)[C@@H](C)[C@@H](O)[C@@H](C)[C@H](OC(C)=O)[C@@H]1C [Rifampin],stimulation of T4 phage production (synergistic effect on phage T4 growth),AS19 bacterial strain [1],failed to stimulate T4 phage production
"CCn1cc(C(=O)O)c(=O)c2ccc(C)nc21 [Nalidix Acid, Nalidixic acid]",stimulation of T4 phage production (synergistic effect on phage T4 growth),AS19 bacterial strain [1],causes a synergistic effect
"CO/N=C(\C(=O)N[C@@H]1C(=O)N2C(C(=O)O)=C(COC(C)=O)CS[C@H]12)c1csc(N)n1 [CTX, Cefotaxime]",cell size of the T4 infected bacteria,AS19 bacterial strain [2],increases in volume considerably producing long fat filaments
same,synergy (size of phage plaques) with CTX (Cefotaxime),[3],++
same,synergy (size of phage plaques) with CTX (Cefotaxime),[4],+++
same,synergy (size of phage plaques) with CTX (Cefotaxime),[5],+++
same,synergy (size of phage plaques) with CTX (Cefotaxime),[6],+
same,cell viability as assayed by colony forming units,AS19 bacterial strain [7]; LB liquid medium,little effected
same,cell division,"AS19 bacterial strain [7]; LB liquid medium, FIGS. 3A and 3B",inhibited
same,optical density of the culture treated with the drug,AS19 bacterial strain [7]; after the addition of the drug,continues to increase for at least two hours
same,synergy (size of phage plaques) with CTX (Cefotaxime),[8],+
same,synergy (size of phage plaques) with CTX (Cefotaxime),[9],+
NCC[C@H](O)C(=O)N[C@@H]1C[C@H](N)[C@@H](O[C@H]2O[C@H](CN)[C@@H](O)[C@H](O)[C@H]2O)[C@H](O)[C@H]1O[C@H]1O[C@H](CO)[C@@H](O)[C@H](N)[C@H]1O [Amikacin],stimulation of T4 phage production (synergistic effect on phage T4 growth),AS19 bacterial strain [1],failed to stimulate T4 phage production
"C[C@H]1[C@H](NC(=O)/C(=N\OC(C)(C)C(=O)O)c2csc(N)n2)C(=O)N1S(=O)(=O)O [ATM, aztreonam]",sensitivity or resistance of the MFP bacterial strain to antibiotic (zone of growth inhibition around disks),non-infected E. coli MFP,sensitivity
same,stimulation of phage φMFP growth by antibiotic disks,"φmF-infected E. coli MFP; FIG. 1, disks marked with +",good stimulation
same,size of φmF plaques in the zone of non lethal antibiotic concentration around disks,"φmF-infected E. coli MFP; MFP host mixed with phage φmF, FIG. 1",significantly larger size
same,size of phage plaques in the zone of non lethal concentrations of antibiotic that encircled antibiotic disks,[10],much larger
C[C@@H]1O[C@@H]1P(=O)(O)O [Fosfomycin],stimulation of T4 phage production (synergistic effect on phage T4 growth),AS19 bacterial strain [1],failed to stimulate T4 phage production
CC1(C)S[C@@H]2[C@H](NC(=O)[C@H](N)c3ccc(O)cc3)C(=O)N2[C@H]1C(=O)O [Amoxicillin],sensitivity or resistance of the MFP bacterial strain to antibiotic (zone of growth inhibition around disks),non-infected E. coli MFP,resistance
Gentamicin,stimulation of T4 phage production (synergistic effect on phage T4 growth),AS19 bacterial strain [1],failed to stimulate T4 phage production
